Here are results for 24 compounds from patent US8426406B2, “Glucocorticoid receptor agonist comprising 2,2,4-trimethyl-6-phenyl-1,2-dihydroquinoline derivatives having substituted oxy group” (Santen Pharmaceutical Co., Ltd., priority 2008, dated 2013).

The test system of the test is IL-6 production induced by lipopolysaccharide (LPS) in human corneal epithelial cells. As to the kind of experiment: Evaluation test for GR agonist activity: inhibition of LPS-induced IL-6 production in human corneal epithelial cells (HCE-T). The format is cell-based. The following applies: Corneal epithelial cell, 10 μL of 100 μM test compound solution per well, 4 hours incubation, efficacy relative to DEX. As for the experimental part: In order to evaluate a GR agonist activity of the present compound, the inhibitory effects on the IL-6 production induced by lipopolysaccharide (LPS) in human corneal epithelial cells. IL-6 levels in the conditioned medium were measured using the HTRF human IL-6 Kit (boehringer-Ingelheim, Cat No. 62IL6PEB), and the procedure was carried out according to the protocol attached to the kit. Hereinafter, the specific method will be described.
LPS solution: After LPS was dissolved in phosphate buffer solution (hereinafter referred to as PBS(−)), the resulting solution was diluted with 10% FBS-DMEM/F12 medium, whereby a 1 μg/mL LPS solution was prepared.
After a test compound was dissolved in dimethylsulfoxide (hereinafter referred to as DMSO), the resulting solution was diluted with 10% FBS-DMEM/F12 medium, whereby a 100 μM test compound solution was prepared. A 100 μM DEX solution was prepared by the same method, and the inhibitory ratio of IL-6 production of DEX was evaluated to use for calculating efficacy (% DEX).
Used cell: SV40-immortalized human corneal epithelial cells (HCE-T) (RIKEN)
1) HCE-T cells were harvested, and seeded at 2.0×10^4 cells/0.1 mL/well in a 96-well plate.
2) After incubation overnight, the medium was removed and a 80 μL of new 10% FBS-DMEM/Ham's F12 medium was added into each well.
3) A 10 μL of test compounds solution was added into each well.
4) A 10 μL of LPS solution was added into each well.
5) As a negative control, a 10 μL of 10% FBS-DMEM/Ham's F12 medium was added into each well instead of a test compound solution and a LPS solution.
6) As a positive control, a 10 μL of 10% FBS-DMEM/Ham's F12 medium containing 1% DMSO was added into each well instead of a test compound solution.
7) After 4 hours incubation, supernatants were collected and IL-6 levels in the supernatants were quantitated using the HTRF human IL-6 Kit.
8) The inhibition ratio of IL-6 production (%) was calculated according to the following equation.
The inhibition ratio of IL-6 production (%) was calculated according to the following equation. The inhibition ratio of IL-6 production(%)=100×[1−(IL-6 level in each group−mean value of IL-6 level in negative control)/(mean value of IL-6 level in positive control−mean value of IL-6 level in negative control)](%)
Furthermore, the inhibition ratio of IL-6 production (efficacy (% DEX)) was also calculated according to the following equation. Efficacy(% DEX)=100×{(mean value of IL-6 inhibition in compound-treated group)/(mean value of IL-6 inhibition in DEX-treated group)}(%) (Result and Discussion)

A word on the Emax: it is the greatest response seen or fitted, relative to the assay's reference. `COc1cc(OC(=O)c2occc2C)ccc1-c1ccc2c(c1COC(=O)c1ccc(C)s1)C(C)=CC(C)(C)N2` [Compound 1-171, 6-[2-Methoxy-4-(3-methylfuran-2-ylcarbonyloxy)phenyl]-5-(5-methylthiophen-2-ylcarbonyloxymethyl)-2,2,4-trimethyl-1,2-dihydroquinoline] came in with an Emax of 87%.
As for `COc1ccccc1NCc1c(-c2ccc(OC(=O)c3ccccc3SC)cc2OC)ccc2c1C(C)=CC(C)(C)N2` [Compound 1-111], the figure is 81%.
As for `COc1ccccc1NCc1c(-c2ccc(OC(=O)c3cccnc3C)cc2OC)ccc2c1C(C)=CC(C)(C)N2` [Compound 1-91, 6-[2-Methoxy-4-(2-methylpyridin-3-ylcarbonyloxy)phenyl]-5-(2-methoxyphenylaminomethyl)-2,2,4-trimethyl-1,2-dihydroquinoline], the figure is 92%; as for `COc1ccccc1NCc1c(-c2ccc(OC(=O)c3ccoc3)cc2OC)ccc2c1C(C)=CC(C)(C)N2` [Compound 1-95, 6-[4-(Furan-3-ylcarbonyloxy)-2-methoxyphenyl]-5-(2-methoxyphenylaminomethyl)-2,2,4-trimethyl-1,2-dihydroquinoline], 87%.
In turn, `COc1cc(OC(=O)c2ccccc2SC)ccc1-c1ccc2c(c1COC(=O)c1ccc(C)s1)C(C)=CC(C)(C)N2` [Compound 1-151] had an Emax of 90%.
As for `COc1ccccc1NCc1c(-c2ccc(OC(=O)c3occc3C)cc2OC)ccc2c1C(C)=CC(C)(C)N2` [Compound 1-114, 6-[2-Methoxy-4-(3-methylfuran-2-ylcarbonyloxy)phenyl]-5-(2-methoxyphenylaminomethyl)-2,2,4-trimethyl-1,2-dihydroquinoline], the figure is 87%; as for `COc1cc(OC(=O)c2ccccc2OC(C)=O)ccc1-c1ccc2c(c1COc1cc(F)ccc1C)C(C)=CC(C)(C)N2` [Compound 1-36, 6-[4-(2-Acetoxybenzoyloxy)-2-methoxyphenyl]-5-(5-fluoro-2-methylphenoxymethyl)-2,2,4-trimethyl-1,2-dihydroquinoline], 75%.
The result for `COc1cc(OC(=O)c2ccc(C)nc2)ccc1-c1ccc2c(c1COc1cc(F)ccc1C)C(C)=CC(C)(C)N2` [Compound 1-55, 5-(5-Fluoro-2-methylphenoxymethyl)-6-[2-methoxy-4-(6-methylpyridin-3-ylcarbonyloxy)phenyl]-2,2,4-trimethyl-1,2-dihydroquinoline] reads 76%; that for `COc1cc(OC(=O)c2ccncc2F)ccc1-c1ccc2c(c1COc1cc(F)ccc1C)C(C)=CC(C)(C)N2` [Compound 1-69, 5-(5-Fluoro-2-methylphenoxymethyl)-6-[4-(3-fluoropyridin-4-ylcarbonyloxy)-2-methoxyphenyl]-2,2,4-trimethyl-1,2-dihydroquinoline], 72%; that for `COc1cc(OC(=O)C(C)C)ccc1-c1ccc2c(c1COC(=O)c1ccc(C)s1)C(C)=CC(C)(C)N2` [Compound 1-164, 6-(4-Isopropylcarbonyloxy-2-methoxyphenyl)-5-(5-methylthiophen-2-ylcarbonyloxymethyl)-2,2,4-trimethyl-1,2-dihydroquinoline], 85%.
The result for `COc1cc(OC(=O)C(C)(C)C)ccc1-c1ccc2c(c1COc1cc(F)ccc1C)C(C)=CC(C)(C)N2` [Compound 1-58, 6-(4-t-Butylcarbonyloxy-2-methoxyphenyl)-5-(5-fluoro-2-methylphenoxymethyl)-2,2,4-trimethyl-1,2-dihydroquinoline] reads 76%; that for `COc1cc(OC(=O)c2occc2C)ccc1-c1ccc2c(c1COc1cc(F)ccc1C)C(C)=CC(C)(C)N2` [Compound 1-57, 5-(5-Fluoro-2-methylphenoxymethyl)-6-[2-methoxy-4-(3-methylfuran-2-ylcarbonyloxy)phenyl]-2,2,4-trimethyl-1,2-dihydroquinoline], 86%.
Compound `COC(=O)c1cccc(C(=O)Oc2ccc(-c3ccc4c(c3COc3cc(F)ccc3C)C(C)=CC(C)(C)N4)c(OC)c2)c1` [Compound 1-54, 5-(5-Fluoro-2-methylphenoxymethyl)-6-[2-methoxy-4-(3-methoxycarbonylbenzoyloxy)phenyl]-2,2,4-trimethyl-1,2-dihydroquinoline] returned a maximum response (Emax) of 75%.
Compound `COc1cc(OS(=O)(=O)C(C)C)ccc1-c1ccc2c(c1COC(=O)c1ccc(C)s1)C(C)=CC(C)(C)N2` [Compound 4-29, 6-(4-Isopropylsulfonyloxy-2-methoxyphenyl)-5-(5-methylthiophen-2-ylcarbonyloxymethyl)-2,2,4-trimethyl-1,2-dihydroquinoline] showed an Emax of 92%.
The compound `COc1cc(OC(=O)Cc2ccccc2)ccc1-c1ccc2c(c1COc1cc(F)ccc1C)C(C)=CC(C)(C)N2` [Compound 1-15, 5-(5-Fluoro-2-methylphenoxymethyl)-6-(2-methoxy-4-phenylacetoxyphenyl)-2,2,4-trimethyl-1,2-dihydroquinoline] registered an Emax of 77%.
As for `CCN(CCN(C)C)C(=O)Oc1ccc(-c2ccc3c(c2COc2cc(F)ccc2C)C(C)=CC(C)(C)N3)c(OC)c1` [Compound 6-20, 6-[4-[N-(2-Dimethylaminoethyl)-N-ethylaminocarbonyloxy]-2-methoxyphenyl]-5-(5-fluoro-2-methylphenoxymethyl)-2,2,4-trimethyl-1,2-dihydroquinoline], the figure is 79%; as for `COc1cc(OC(=O)c2ccco2)ccc1-c1ccc2c(c1CNc1cc(F)ccc1C)C(C)=CC(C)(C)N2` [Compound 1-106, 5-(5-Fluoro-2-methylphenylaminomethyl)-6-[4-(furan-2-ylcarbonyloxy)-2-methoxyphenyl]-2,2,4-trimethyl-1,2-dihydroquinoline], 82%; as for `COc1cc(OC(=O)c2cccnc2C)ccc1-c1ccc2c(c1COC(=O)c1ccc(C)s1)C(C)=CC(C)(C)N2` [Compound 1-153, 6-[2-Methoxy-4-(2-methylpyridin-3-ylcarbonyloxy)phenyl]-5-(5-methylthiophen-2-ylcarbonyloxymethyl)-2,2,4-trimethyl-1,2-dihydroquinoline], 89%.
The result for `COc1cc(OC(=O)c2ccc(F)cc2)ccc1-c1ccc2c(c1COC(=O)c1ccc(C)s1)C(C)=CC(C)(C)N2` [Compound 1-169, 6-[4-(4-Fluorobenzoyloxy)-2-methoxyphenyl]-5-(5-methylthiophen-2-ylcarbonyloxymethyl)-2,2,4-trimethyl-1,2-dihydroquinoline] reads 78%.
The result for `COc1cc(OC(=O)N2CCOCC2)ccc1-c1ccc2c(c1COC(=O)c1ccc(C)s1)C(C)=CC(C)(C)N2` [Compound 6-26, 6-[2-Methoxy-4-(morpholin-4-ylcarbonyloxy)phenyl]-5-(5-methylthiophen-2-ylcarbonyloxymethyl)-2,2,4-trimethyl-1,2-dihydroquinoline] reads 84%; that for `COc1cc(OC(=O)c2ccccc2Cl)ccc1-c1ccc2c(c1CNc1cc(F)ccc1C)C(C)=CC(C)(C)N2` [Compound 1-98, 6-[4-(2-Chlorobenzoyloxy)-2-methoxyphenyl]-5-(5-fluoro-2-methylphenylaminomethyl)-2,2,4-trimethyl-1,2-dihydroquinoline], 78%; that for `COc1cc(OC(=O)c2ccc(Cl)cc2)ccc1-c1ccc2c(c1COC(=O)c1ccc(C)s1)C(C)=CC(C)(C)N2` [Compound 1-141, 6-[4-(4-Chlorobenzoyloxy)-2-methoxyphenyl]-5-(5-methylthiophen-2-ylcarbonyloxymethyl)-2,2,4-trimethyl-1,2-dihydroquinoline], 78%.
Turning to `COc1cc(OC(=O)c2ccccc2F)ccc1-c1ccc2c(c1COC(=O)c1ccc(C)s1)C(C)=CC(C)(C)N2` [Compound 1-144, 6-[4-(2-Fluorobenzoyloxy)-2-methoxyphenyl]-5-(5-methylthiophen-2-ylcarbonyloxymethyl)-2,2,4-trimethyl-1,2-dihydroquinoline], the Emax was found to be 94%.
The result for `COc1cc(OC(=O)c2cccnc2OC)ccc1-c1ccc2c(c1COC(=O)c1ccc(C)s1)C(C)=CC(C)(C)N2` [Compound 1-166, 6-[2-Methoxy-4-(2-methoxypyridin-3-ylcarbonyloxy)phenyl]-5-(5-methylthiophen-2-ylcarbonyloxymethyl)-2,2,4-trimethyl-1,2-dihydroquinoline] reads 91%.
